These are literature values, as cited in patent publication US20160235072A1, “ANTIMICROBIAL POLYMER CONCENTRATES AND COMPOUNDS” (POLYONE CORPORATION, priority 2013, published 2016).

The series relates to pathogens from the Streptococcus and Staphylococcus genera.

Zinc pyrithione: the effectiveness against pathogens result is “effective against many pathogens”.
